Test results published in patent publication US20260109690A1, “HDAC6 INHIBITORS AND METHOD OF THEIR USE” (Baerenkraft Therapeutics, LLC., priority 2024, published 2026).
Where “and” joins values, the source holds several entries; their conditions need not be identical. Identical values can stand only once. Entries after “also recorded” stand apart in the source; their conditions may differ.

Assays:
[1] = test system: B6SJL.SOD1-G93A transgenic mouse model of amyotrophic lateral sclerosis; assay: ALS mouse model: wire suspension test (inverted screen test); type: in vivo, mice
Experimental: Wire hang test was used to measure the muscle strength of animals. During the test, the animals were placed on the top of a wire lid of a housing cage. Then the lid was inverted and slightly shaken to ensure the grip of animal on the lid. Latency to fall(s) off the lid was recorded. A total of 3 trials were recorded and averaged to analyze the data. A cutoff time of 90 s was used to end the trial.
Note: Behavioral tests were performed once in two weeks, i.e. at week 10, 12, 14 and 16.

HDAC10 = molecular target: T1, HDAC10 (Homo sapiens, UniProt Q969S8); assay: HDAC selectivity panel: HDAC10; type: biochemical
T1 sequence (Q969S8 1-669): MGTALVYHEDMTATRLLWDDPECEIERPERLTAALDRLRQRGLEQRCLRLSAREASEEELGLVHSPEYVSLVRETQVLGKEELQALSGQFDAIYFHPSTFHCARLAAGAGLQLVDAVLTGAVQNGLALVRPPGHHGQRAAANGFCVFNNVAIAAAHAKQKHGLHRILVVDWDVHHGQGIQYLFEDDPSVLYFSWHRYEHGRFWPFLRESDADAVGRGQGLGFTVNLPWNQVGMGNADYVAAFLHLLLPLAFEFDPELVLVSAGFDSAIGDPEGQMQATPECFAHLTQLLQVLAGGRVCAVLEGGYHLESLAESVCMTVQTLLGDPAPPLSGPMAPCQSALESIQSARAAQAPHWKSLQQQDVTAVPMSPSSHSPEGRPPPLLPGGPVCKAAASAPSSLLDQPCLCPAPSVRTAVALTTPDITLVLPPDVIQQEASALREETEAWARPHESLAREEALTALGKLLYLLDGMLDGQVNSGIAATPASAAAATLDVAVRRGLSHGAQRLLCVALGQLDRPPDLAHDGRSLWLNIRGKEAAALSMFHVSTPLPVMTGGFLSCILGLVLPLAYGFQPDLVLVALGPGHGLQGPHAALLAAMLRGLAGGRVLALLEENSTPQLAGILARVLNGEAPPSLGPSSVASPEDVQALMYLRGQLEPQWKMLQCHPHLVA

HDAC6 = molecular target: T2, HDAC6 (Homo sapiens, UniProt Q9UBN7); assay: NanoBRET assay for target engagement in HEK293 cells transiently transfected with HDAC6; type: cell-based; details: HEK293 cells transfected with HDAC6-NanoLuc Fusion vector, 1 hour
T2 sequence (Q9UBN7 1-1215): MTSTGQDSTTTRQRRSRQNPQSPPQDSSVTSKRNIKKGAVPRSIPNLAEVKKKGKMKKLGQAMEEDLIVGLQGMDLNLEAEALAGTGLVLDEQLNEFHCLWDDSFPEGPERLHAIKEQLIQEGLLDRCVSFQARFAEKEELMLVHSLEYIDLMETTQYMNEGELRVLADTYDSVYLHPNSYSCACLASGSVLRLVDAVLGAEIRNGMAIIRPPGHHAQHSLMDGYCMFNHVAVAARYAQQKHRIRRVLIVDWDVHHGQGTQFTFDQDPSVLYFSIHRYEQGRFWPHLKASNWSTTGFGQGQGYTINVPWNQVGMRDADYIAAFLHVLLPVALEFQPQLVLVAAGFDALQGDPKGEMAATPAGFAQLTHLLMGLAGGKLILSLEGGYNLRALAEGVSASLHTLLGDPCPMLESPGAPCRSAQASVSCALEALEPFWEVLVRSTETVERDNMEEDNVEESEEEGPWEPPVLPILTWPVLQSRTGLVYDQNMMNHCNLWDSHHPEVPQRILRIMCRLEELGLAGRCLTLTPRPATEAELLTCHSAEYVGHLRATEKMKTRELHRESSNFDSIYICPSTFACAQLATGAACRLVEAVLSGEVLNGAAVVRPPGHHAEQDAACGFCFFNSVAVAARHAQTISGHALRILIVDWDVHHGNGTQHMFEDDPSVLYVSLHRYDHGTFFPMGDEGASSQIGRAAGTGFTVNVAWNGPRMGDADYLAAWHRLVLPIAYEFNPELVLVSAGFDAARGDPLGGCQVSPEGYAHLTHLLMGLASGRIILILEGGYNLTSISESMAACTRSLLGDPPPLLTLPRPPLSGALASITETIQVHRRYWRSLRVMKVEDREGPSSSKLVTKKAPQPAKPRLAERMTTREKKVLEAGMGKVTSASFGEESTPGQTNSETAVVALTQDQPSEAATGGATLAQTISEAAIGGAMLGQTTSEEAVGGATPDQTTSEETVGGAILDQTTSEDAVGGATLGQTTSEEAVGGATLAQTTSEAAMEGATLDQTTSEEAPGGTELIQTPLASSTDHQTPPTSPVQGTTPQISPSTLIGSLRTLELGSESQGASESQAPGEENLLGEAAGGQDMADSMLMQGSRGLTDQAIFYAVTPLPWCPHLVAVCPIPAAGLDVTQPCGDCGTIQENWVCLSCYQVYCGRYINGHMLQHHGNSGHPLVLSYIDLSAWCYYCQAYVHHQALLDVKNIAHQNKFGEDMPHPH

[2] = test system: acetyl-α-tubulin in SH-SY5Y neuroblastoma cells; assay: Western blot of acetylated alpha-tubulin in SH-SY5Y neuroblastoma cells; type: cell-based; details: 1 μM and 10 μM, 24 hours
Experimental: SH-SY5Y neuroblastoma cells were seeded at 1,000,000 cells/well of three 6-well plates and incubated for 24 hours. Cells were treated with 2 control and experimental HDAC6 inhibitors at 1 μM and 10 μM for 24-hours. Following treatment, cells were lysed, and proteins extracted for western blot. Proteins were separated by gel electrophoresis and transferred to nitrocellulose membranes. Membranes were blocked and probed with primary Abs overnight.
acetyl-α-tubulin (Lys40)(D20G3); Cell Signaling Technologies, #5335S
GAPDH; Millipore Sigma, #MAB374
Membranes were probed with secondary Abs for 1 hour and then the blots were imaged using the iBright 1500 (ThermoFisher)

## CC1CN(Cc2ccc(Nc3nccc(-c4ccc(C(=O)NO)cc4)n3)cc2F)CCO1 (racemic) [Compound I-8, 4-(2-((3-fluoro-4-((2-methylmorpholino)methyl)phenyl)amino)pyrimidin-4-yl)-N-hydroxybenzamide]
[1]; G3 15 mg/kg p.o. QD, Week 10
  Wire Suspension test latency to fall: 49.70 ± 8.667 s
[1]; G3 15 mg/kg p.o. QD, Week 12
  Wire Suspension test latency to fall: 37.48 ± 9.92 s
[1]; G3 15 mg/kg p.o. QD, Week 14
  Wire Suspension test latency to fall: 19.22 ± 7.18 ^ seconds
[1]; G3 15 mg/kg p.o. QD, Week 16
  Wire Suspension test latency to fall: 3.71 ± 0.73 s
[1]; G3 15 mg/kg, week 14
  latency to fall of the wire vs. G2: significant reduction in latency to fall of the wire
[1]; G4 30 mg/kg (50 mg/kg from day 34) p.o. QD, Week 10
  Wire Suspension test latency to fall: 60.38 ± 10.00 s
[1]; G4 30 mg/kg (50 mg/kg from day 34) p.o. QD, Week 12
  Wire Suspension test latency to fall: 45.46 ± 7.98 s
[1]; G4 30 mg/kg (50 mg/kg from day 34) p.o. QD, Week 14
  Wire Suspension test latency to fall: 28.13 ± 5.38 ^ seconds
[1]; G4 30 mg/kg (50 mg/kg from day 34) p.o. QD, Week 16
  Wire Suspension test latency to fall: 6.46 ± 1.58 s
[1]; G4, week 14
  latency to fall of the wire vs. G2: significant reduction in latency to fall of the wire
HDAC10
  IC50: 9.15 nM
HDAC6
  IC50: 34.7 nM and 35 nM
[2]
  acetylation of α-tubulin (Western blot): induce acetylation of α-tubulin in SH-SY5Y neuroblastoma cells in a dose-dependent manner; also recorded: induces acetylation α-tubulin
